Earlier results as cited in patent US9192591B2, “Method and composition for treating alzheimer-type dementia” (priority 2008, dated 2015).

Legend:
[1] = test system: patients with dementias of the Alzheimer type; details: donepezil 5-10 mg per day; rivastigmine 1-4 and 6-12 mg per day; galantamine 8-32 mg per day
[2] = test system: patients with Alzheimer's disease treated with tacrine; details: propantheline 7.5 mg to 15 mg four times a day
[3] = test system: patients with Alzheimer's disease; details: skin patches replacing immediate release tablets

SMILES | benefits on cognitive and global measures relevant to dementia [1] | effect on peripheral cholinergic gastrointestinal side effects of tacrine (cramping, nausea, vomiting, diarrhea) [2] | amount of cognitive improvement and side effects on doubling the dose [3] | patients who discontinued because of vomiting (patients; compared to less than 1% on placebo) | patients in whom weight declined (patients; during rivastigmine therapy) [%] | patients reporting loss of appetite (patients; in vivo) [%] | patients who become nauseated (patients; oral 6-12 mg/day) | patients who vomit at least once (patients; oral 6-12 mg/day) | patients with mild or moderate vomiting (patients; rivastigmine-treated patients) [%] | patients with severe vomiting (patients; rivastigmine-treated patients) [%]
COc1cc2c(cc1OC)C(=O)C(CC1CCN(Cc3ccccc3)CC1)C2 (racemic) [donepezil, (±)-2,3-dihydro-5,6-dimethoxy-2-[[1-(phenylmethyl)-4-piperidinyl]methyl]-1H-inden-1-one] | small, but statistically significant, benefits |  |  |  |  |  |  |  |  | 
CC(C)[N+](C)(CCOC(=O)C1c2ccccc2Oc2ccccc21)C(C)C [propantheline] |  | ameliorated |  |  |  |  |  |  |  | 
CCN(C)C(=O)Oc1cccc([C@H](C)N(C)C)c1 [rivastigmine, (S)—N-Ethyl-N-methyl-3-[1-(dimethylamino)ethyl]-phenyl carbamate] | small, but statistically significant, benefits |  | significantly increased the amount of cognitive improvement in patients with Alzheimer's disease without increasing side effects | Five | 25 | 17 | About half | about one-third | 14 | 2
